Where two headings read alike, the source gives them in different places.
Tests used:
[1] = tested on: human erythroid K562 cells; format: cell-based; conditions: for Viability of cells exposed to t-BuOOH: 830 μM t-BuOOH 1 h, protective agent 2.5-150 μM, 4 h pre-incubation, FIG. 3
Procedure: (§1) Since selenoneine is the analog of the well-known natural antioxidant and cytoprotectant ergothioneine, its capacity as an antioxidant and cytoprotectant was assessed. To that effect, the capacity of selenoneine to protect cells against the cytotoxic effects induced by t-butyl hydroperoxide (t-BuOOH) and methylmercury chloride (MeHgCl) was assessed. Human erythroid K562 cells expressing the ergothioneine transporter (OCTN1) were exposed to the IC50 values of t-BuOOH and MeHgCl respectively, in the presence of increasing concentrations of either selenoneine or ergothioneine. The cell viability was subsequently assessed using the trypan blue viability exclusion test.^[20]
(§2) In vitro protection assays against either methylmercury chloride (MeHgCl) or tert-butyl hydroperoxide (t-BuOOH) were conducted with the K562-S human leukemia cell line (REF #CRL-3343™) obtained from the American Type Culture Collection (ATCC). Cells were cultured in Gibco RPMI 1640 complete growth medium with L-Glutamine (REF #31800-105), NaHCO3 (2 g/L), 10% FBS (REF #080-750), 2% antibiotic-antimycotic from Gibco (REF #15240-062), pH 7.4, and maintained at 37° C. in a 5% CO2 incubator and protected from light.
(§3) An uptake induction step, in a saline buffer containing 125 mM of NaCl; 25 mM of HEPES-NaOH (pH 7.4); 5.6 mM of D(+)-glucose; 4.8 mM KCl; 1.2 mM of KH2PO4; 1.2 mM of CaCl2; and 1.2 mM of MgSO4, was performed prior to adding selenoneine or ergothioneine to the cell medium.^[22,23] Cells were resuspended in triplicate and pre-incubated in the saline buffer at a density of 2×10^6 cells/mL for 20 minutes at 37° C. under slight agitation. Cells were then incubated during 4 hours in the same buffer and conditions but supplemented with the protective agent of interest—either ergothioneine or selenoneine—in the presence of 0.15 mM of reduced glutathione (GSH). Concentrations of protective agents, either ergothioneine or selenoneine, used for these experiments were 2.5, 5, 25, 50, 100, and 150 μM (FIGS. 3 and 4). […] Results are expressed as the mean±standard error of the mean of triplicates. […]

[2] = tested on: human erythroid K562 cells; assay: Protection against MeHgCl induced cytotoxicity, trypan blue viability exclusion test; format: cell-based; conditions: for Viability of cells exposed to MeHgCl: 5 μM MeHgCl overnight (18h), protective agent 2.5-150 μM, 4 h pre-incubation, FIG. 4
Procedure: as §1, §2
An uptake induction step, in a saline buffer containing 125 mM of NaCl; 25 mM of HEPES-NaOH (pH 7.4); 5.6 mM of D(+)-glucose; 4.8 mM KCl; 1.2 mM of KH2PO4; 1.2 mM of CaCl2; and 1.2 mM of MgSO4, was performed prior to adding selenoneine or ergothioneine to the cell medium.^[22,23] Cells were resuspended in triplicate and pre-incubated in the saline buffer at a density of 2×10^6 cells/mL for 20 minutes at 37° C. under slight agitation. Cells were then incubated during 4 hours in the same buffer and conditions but supplemented with the protective agent of interest—either ergothioneine or selenoneine—in the presence of 0.15 mM of reduced glutathione (GSH). Concentrations of protective agents, either ergothioneine or selenoneine, used for these experiments were 2.5, 5, 25, 50, 100, and 150 μM (FIGS. 3 and 4). Cells were then washed twice in cold phosphate-buffered saline (PBS) and resuspended in complete RPMI growth medium and divided into two groups at a density of 1×10^6 cells/mL. One group of cells remained untreated (control group) while the other group was treated with either 830 μM of t-BuOOH, or 5 μM of MeHgCl. These concentrations were determined to decrease cell survival by 50% in preliminary experiments (IC50 values). Cells were then incubated at 37° C. under slight agitation over a period of one (1) hour in the case of t-BuOOH, or overnight (18h) for MeHgCl. The cells were then washed twice in cold PBS before being resuspended in complete RPMI growth medium at a density of 5×10^5 cells/mL. The trypan blue viability exclusion test was then conducted using a Hausser Scientific™ Bright-Line™ Phase Hemacytometer. Viable cells (%)=[total number of viable cells per mL of aliquot/total number of cells per mL of aliquot]×100.^[20] Results are expressed as the mean±standard error of the mean of triplicates. These experiments were repeated twice, and similar results were obtained.

[3] = S at C-5 (ovothiols) versus S at C-2 (ergothioneine); cited from earlier work
[4] = tested on: K562-S human leukemia cell line; assay: Preliminary experiments: concentration of toxicant decreasing cell survival by 50%; format: cell-based; conditions: K562 cells
Procedure: as §2
as §3, with “(GSH).” for “(GSH). Concentrations of protective agents, either ergothioneine or selenoneine, used for these experiments were 2.5, 5, 25, 50, 100, and 150 μM (FIGS. 3 and 4).”

C[N+](C)(C)[C@@H](Cc1c[nH]c(=S)[nH]1)C(=O)[O-] [ergothioneine]
Viability of cells exposed to t-BuOOH [1]: increased with increasing concentrations
Viability of cells exposed to MeHgCl [2]: increased with increasing concentrations
Cell viability versus control groups at concentrations of 150 μM or higher ([2]; 5 μM MeHgCl, K562 cells, protective agent 150 μM or higher): did not result in cell viabilities comparable to those of the control groups
pKa value [3]: 8.7

CC(C)(C)OO [t-BuOOH, t-butyl hydroperoxide]
IC50 ([4]; Homo sapiens): 830 µM

[CH3][Hg][Cl] [MeHgCl, methylmercury chloride]
IC50 [4]: 5 µM

C[N+](C)(C)[C@@H](Cc1c[nH]c(=[Se])[nH]1)C(=O)[O-] [selenoneine, (S)-3-(2-selenoxo-2,3-dihydro-1H-imidazol-4-yl)-2-(trimethylammonio) propanoate]
Viability of cells exposed to t-BuOOH [1]: increased with increasing concentrations
Concentration resulting in cell viabilities comparable to those of the control groups ([1]; 830 μM t-BuOOH, K562 cells): ≥ 100 µM
Viability of cells exposed to MeHgCl [2]: increased with increasing concentrations
Concentration resulting in cell viabilities comparable to those of the control groups ([2]; 5 μM MeHgCl, K562 cells): ≥ 100 µM
Protective effect against MeHgCl induced cytotoxicity, comparison ([2]; 5 μM MeHgCl, K562 cells): greater protective effect relative to ergothioneine

Reference: patent US20250115557A1, “TOTAL SYNTHESES OF SELENONEINE, ISO-SELENONEINE, AND ISOMERS” (UNIVERSITÉ LAVAL, priority 2022, published 2025)
